Eleven compounds from ChEMBL document CHEMBL1201862, “PubChem BioAssay data set” (2004) can be followed below.

Molecules are shown by their SMILES.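 In this assay, cells in 96-well plates receive the compound at five concentrations for 48 hours. Endpoints are linearly interpolated between the surrounding concentrations. The concentration for 50% growth inhibition is given as GI50.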 The source made the active and inactive calls. No stated cut-off is given here; in the data, active = GI50 up to about 1.1 µM and inactive = higher.

Test systems include SK-MEL-28; UO-31; PC-3; KM12; MDA-N; SK-MEL-5; SW-620; SK-OV-3; NCI-H23; HCT-15; DU-145; M14; HCC 2998; COLO 205; NCI-H460; MOLT-4; A549; SK-MEL-2; SR.
Common to all, as to assay: DTP human tumour cell line panel, 48 h

The GI50 is the concentration giving 50% growth inhibition. `CCOP(=O)(OCC)C(F)(F)Cc1cnc(C)c2c1COC(C)(C)O2`: the GI50 with SK-MEL-28, in the assay on UO-31, with PC-3, with KM12, with MDA-N and in the assay with SK-MEL-5 was > 10 µM (inactive) in each case. Also, the GI50 with SW-620 was > 10 µM (inactive); in the assay on SK-OV-3 it was > 10 µM (inactive); with NCI-H23, > 10 µM (inactive); in the assay on HCT-15, > 10 µM; in the assay with DU-145, > 10 µM (inactive); in the assay with M14 it was > 10 µM (inactive). Further, the GI50 in the assay with HCC 2998, in the assay on COLO 205, in the assay with NCI-H460, in the assay with MOLT-4, in the assay with A549 and in the assay on SK-MEL-2 was > 10 µM (inactive) in each case. The GI50 in the assay on SR was > 10 µM (inactive).

On to `O=P1(N(CCCl)CCCl)Oc2ccc(Cl)cc2Sc2c(ccc(Cl)c2Cl)O1` (centres undefined), for which the GI50 in the assay on SK-MEL-28 was 11.5 µM (inactive); in the assay on UO-31 it was 4.71 µM (inactive); with PC-3 it was 3.28 µM (inactive); in the assay with KM12, 4.99 µM (inactive); in the assay on MDA-N, 7.91 µM (inactive); in the assay on SK-MEL-5 it was 5.02 µM (inactive). In addition, the GI50 was 6.68 µM (inactive) with SW-620; 21.9 µM (inactive) in the assay with SK-OV-3; 4.27 µM (inactive) with NCI-H23; 5.18 µM in the assay with HCT-15; 63.7 µM (inactive) in the assay on DU-145; 17.8 µM (inactive) in the assay on M14. Further, the GI50 in the assay on HCC 2998 was 16.5 µM (inactive); in the assay on COLO 205 it was 8.18 µM (inactive); with NCI-H460, 4.79 µM (inactive); in the assay on MOLT-4 it was 3.96 µM (inactive); with A549, 3.78 µM (inactive); in the assay on SK-MEL-2, 9.68 µM (inactive). In addition, the GI50 in the assay with SR is 2.99 µM (inactive).

For `CCOC(=O)C(c1c[nH]c2ccccc12)(c1c[nH]c2ccccc12)c1c[nH]c2ccccc12`, the GI50 in the assay with SK-MEL-28 is 33.7 µM (inactive); in the assay with UO-31, 30.3 µM (inactive); with PC-3, 19.7 µM (inactive); in the assay with KM12 it was 28.5 µM (inactive); in the assay with MDA-N, 31.9 µM (inactive); in the assay on SK-MEL-5 it was 34.4 µM (inactive). The GI50 in the assay with SW-620 is 19.8 µM (inactive); with SK-OV-3, 30.1 µM (inactive); in the assay with NCI-H23, 70.8 µM (inactive); with HCT-15, 34.7 µM; in the assay with DU-145 it was 39.8 µM (inactive); in the assay with M14, 28.3 µM (inactive). Also, the GI50 in the assay with HCC 2998 is 17.1 µM (inactive); in the assay with COLO 205, 15.7 µM (inactive); with NCI-H460 it was 27.3 µM (inactive); with MOLT-4 it was 5.87 µM (inactive); with A549, 30.7 µM (inactive); with SK-MEL-2, 18.8 µM (inactive). The GI50 with SR is 23.6 µM (inactive).

As to `CCOP(=O)(OCC)C(C#N)Cc1ccco1` (centres undefined), the GI50 in the assay on SK-MEL-28, in the assay with UO-31, in the assay with PC-3, in the assay with KM12, in the assay on MDA-N and in the assay with SK-MEL-5 was > 10 µM (inactive) each time. In addition, the GI50 is > 10 µM (inactive) in the assay on SW-620; > 10 µM (inactive) in the assay on SK-OV-3; > 10 µM (inactive) in the assay with NCI-H23; > 10 µM in the assay with HCT-15; 1.98 µM (inactive) in the assay on DU-145; > 10 µM (inactive) in the assay with M14. For the same compound, the GI50 in the assay on HCC 2998, in the assay with COLO 205, with NCI-H460, with MOLT-4, with A549 and in the assay on SK-MEL-2 was > 10 µM (inactive) each time. Further, the GI50 with SR was > 10 µM (inactive).

For the compound `COC(=O)Cc1cc2c(cc1C(=O)c1ccc(N)cc1)OCO2`, the GI50 with SK-MEL-28 was 3.36 µM (inactive); with UO-31, 13.6 µM (inactive); in the assay with PC-3, 1.73 µM (inactive); in the assay on KM12, 0.488 µM (active); in the assay with MDA-N, 0.19 µM (active); in the assay on SK-MEL-5, 0.435 µM (active). Also, the GI50 was 1.19 µM (inactive) with SW-620; 2.94 µM (inactive) in the assay on SK-OV-3; 5.68 µM (inactive) with NCI-H23; 1.1 µM with HCT-15; 4.11 µM (inactive) with DU-145; 1.64 µM (inactive) in the assay with M14. Moreover, the GI50 was 0.78 µM (active) with HCC 2998; 1.21 µM (inactive) with COLO 205; 12.2 µM (inactive) in the assay with NCI-H460; 1.63 µM (inactive) with MOLT-4; 3.62 µM (inactive) in the assay with A549; 0.964 µM (active) in the assay on SK-MEL-2. Moreover, the GI50 in the assay on SR is 0.117 µM (active).

On to `COc1ccc(N2C(=O)C3c4[nH]c5cccc(C)c5c4C4CCC(C(C)(C)C)CC4C3C2=O)cc1` (centres undefined), for which the GI50 in the assay on SK-MEL-28, in the assay on UO-31, with PC-3, in the assay on KM12, with MDA-N and in the assay with SK-MEL-5 was > 10 µM (inactive) throughout. For the same compound, the GI50 is > 10 µM (inactive) with SW-620; > 10 µM (inactive) in the assay on SK-OV-3; > 10 µM (inactive) in the assay on NCI-H23; > 10 µM in the assay on HCT-15; > 10 µM (inactive) in the assay on DU-145; > 10 µM (inactive) in the assay on M14. For the same compound, the GI50 in the assay with HCC 2998 was > 10 µM (inactive); in the assay on COLO 205, > 10 µM (inactive); in the assay on NCI-H460, 4.68 µM (inactive); in the assay with MOLT-4, > 10 µM (inactive); with A549, > 10 µM (inactive); with SK-MEL-2, > 10 µM (inactive). In the assay with SR, the GI50 was > 10 µM (inactive).

Consider `Cc1nn(C(=O)c2ccccc2O)c2c1C(c1ccc(O)cc1)SC(=N)N2` (centres undefined), for which the GI50 in the assay with SK-MEL-28 was > 10 µM (inactive); in the assay on UO-31, 7.55 µM (inactive); in the assay with PC-3, > 3.03 µM (inactive); in the assay on KM12, > 2.15 µM (inactive); in the assay with MDA-N, 1.67 µM (inactive); in the assay with SK-MEL-5, > 3.08 µM (inactive). In addition, the GI50 in the assay with SW-620 is > 6.64 µM (inactive); with SK-OV-3, 2.25 µM (inactive); with NCI-H23, 1.83 µM (inactive); with HCT-15 it was 1.75 µM; with DU-145, 1.67 µM (inactive); in the assay with M14 it was > 2.86 µM (inactive). The GI50 in the assay with HCC 2998 was > 8.91 µM (inactive); with COLO 205, > 6.93 µM (inactive); in the assay on NCI-H460, 0.359 µM (active); with MOLT-4 it was 1.33 µM (inactive); with A549, 1.26 µM (inactive); with SK-MEL-2 it was > 2.65 µM (inactive). The GI50 in the assay with SR is 1.44 µM (inactive).

`CC(C)SC(=S)Sc1c(Cl)c(Cl)nc(Cl)c1Cl`: the GI50 in the assay with SK-MEL-28 was 18.7 µM (inactive); with UO-31, 8 µM (inactive); in the assay on PC-3 it was 4.93 µM (inactive); with KM12, 8.24 µM (inactive); in the assay on MDA-N, 5.27 µM (inactive); with SK-MEL-5, 14.8 µM (inactive). Moreover, the GI50 was 2.88 µM (inactive) in the assay with SW-620; 17.8 µM (inactive) in the assay with SK-OV-3; 12.3 µM (inactive) with NCI-H23; 2.97 µM with HCT-15; 3.94 µM (inactive) with DU-145; 12.4 µM (inactive) in the assay with M14. The GI50 with HCC 2998 was 3.31 µM (inactive); in the assay with COLO 205, 8.55 µM (inactive); in the assay on NCI-H460, 17.1 µM (inactive); with MOLT-4, 2.65 µM (inactive); in the assay on A549, 16.9 µM (inactive); with SK-MEL-2, 7.82 µM (inactive). In addition, the GI50 in the assay with SR is 2.83 µM (inactive).

With `O/N=C1\CC2(N3CCOCC3)CCC1(Cc1ccccc1)CC2`, the GI50 with SK-MEL-28, in the assay on UO-31, in the assay with PC-3, with KM12, in the assay with MDA-N and in the assay with SK-MEL-5 was > 100 µM (inactive) each time. Also, the GI50 in the assay on SW-620 was > 100 µM (inactive); in the assay on SK-OV-3, 30.5 µM (inactive); in the assay on NCI-H23, 64.1 µM (inactive); with HCT-15, > 100 µM; in the assay with DU-145 it was > 100 µM (inactive); in the assay with M14, > 100 µM (inactive). Also, the GI50 in the assay on HCC 2998 was > 100 µM (inactive); in the assay on COLO 205, > 100 µM (inactive); in the assay with NCI-H460, > 100 µM (inactive); in the assay on MOLT-4 it was > 100 µM (inactive); in the assay with A549, > 100 µM (inactive); in the assay with SK-MEL-2 it was 37.4 µM (inactive). Besides, the GI50 in the assay with SR was > 100 µM (inactive).

With `c1ccc2c(c1)CN1CCCC1CN2` (centres undefined), the GI50 with SK-MEL-28, in the assay with UO-31, with PC-3, with KM12, with MDA-N and in the assay on SK-MEL-5 was > 100 µM (inactive) throughout. Also, the GI50 with SW-620 was > 100 µM (inactive); in the assay with SK-OV-3 it was > 100 µM (inactive); in the assay on NCI-H23 it was > 100 µM (inactive); in the assay on HCT-15 it was > 100 µM; in the assay with DU-145, > 100 µM (inactive); in the assay on M14, > 100 µM (inactive). The GI50 in the assay with HCC 2998, in the assay on COLO 205, in the assay on NCI-H460, with MOLT-4, in the assay with A549 and in the assay with SK-MEL-2 was > 100 µM (inactive) each time. Also, the GI50 with SR was > 100 µM (inactive).

For the compound `Nc1ncnc2c1cnn2COCC(O)CO` (centres undefined), the GI50 in the assay on SK-MEL-28, in the assay on UO-31, with PC-3, in the assay on KM12, in the assay on MDA-N and in the assay with SK-MEL-5 was > 100 µM (inactive) throughout. In addition, the GI50 in the assay with SW-620 was > 100 µM (inactive); in the assay on SK-OV-3, > 100 µM (inactive); in the assay on NCI-H23 it was > 100 µM (inactive); in the assay with HCT-15, > 100 µM; in the assay with DU-145, > 100 µM (inactive); with M14, > 100 µM (inactive). Besides, the GI50 in the assay with HCC 2998, in the assay on COLO 205, with NCI-H460, in the assay on MOLT-4, with A549 and in the assay with SK-MEL-2 was > 100 µM (inactive) in each case. In the assay with SR, the GI50 was > 100 µM (inactive).
